Assay results published in BindingDB's records for doi:10.7270/Q2RX99Q9 (The Scripps Research Institute Molecular Screening Center, 2013).

Target: Albumin (Bos taurus, UniProt P02769)
Sequence (P02769 whole entry): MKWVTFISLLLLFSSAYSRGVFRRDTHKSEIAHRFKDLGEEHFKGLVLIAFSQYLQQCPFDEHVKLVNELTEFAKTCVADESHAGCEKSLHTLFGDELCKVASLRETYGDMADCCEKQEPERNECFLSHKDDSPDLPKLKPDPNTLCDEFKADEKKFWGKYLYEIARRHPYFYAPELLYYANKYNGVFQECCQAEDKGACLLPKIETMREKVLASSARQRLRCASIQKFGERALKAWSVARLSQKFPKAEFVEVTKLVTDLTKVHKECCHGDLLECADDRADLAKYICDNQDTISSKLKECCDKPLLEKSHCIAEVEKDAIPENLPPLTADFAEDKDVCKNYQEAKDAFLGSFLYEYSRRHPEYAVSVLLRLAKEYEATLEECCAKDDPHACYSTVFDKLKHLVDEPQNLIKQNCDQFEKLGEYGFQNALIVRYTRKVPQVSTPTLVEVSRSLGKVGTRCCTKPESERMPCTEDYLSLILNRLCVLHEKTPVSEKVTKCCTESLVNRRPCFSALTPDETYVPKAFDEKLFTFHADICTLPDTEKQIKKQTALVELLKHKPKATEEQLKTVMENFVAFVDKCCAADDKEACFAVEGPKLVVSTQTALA

CC1=CC(/C=N/n2c(COc3ccccc3C)nc3ccccc3c2=O)C(=O)C([N+](=O)[O-])=C1 (stereo not drawn)
IC50: > 94.1 µM

COc1ccc(CC(=O)N/N=C/C2C=C([N+](=O)[O-])C=C(Br)C2=O)cc1 (stereo not drawn)
IC50: > 94.1 µM

CC1=CC(/C=N/n2c(CO[N-][C+](C)c3ccccc3)nc3ccccc3c2=O)C(=O)C([N+](=O)[O-])=C1 (stereo not drawn)
IC50: > 94.1 µM

O=C(N/N=C/C1C=CC=C([N+](=O)[O-])C1=O)c1cccs1 (stereo not drawn)
IC50: > 94.1 µM

COC1=CC([N+](=O)[O-])=CC(/C=N/NC(=O)c2cc(C)nc3ccccc23)C1=O (stereo not drawn)
IC50: > 94.1 µM

O=C(N/N=C/C1C=C([N+](=O)[O-])C=CC1=O)c1cccc(N2CCCC2=O)c1 (stereo not drawn)
IC50: > 94.1 µM

CCOC(=O)C1C(CC)=Nc2ccccc2N=C1NC(=O)Nc1ccc(Cl)c(Cl)c1 (stereo not drawn)
IC50: > 94.1 µM

O=C(NN=CC1=CC(=O)C(=O)CC1)NN=CC1=CC(=O)C(=O)CC1 [1,3-bis[[(Z)-(3-hydroxy-4-oxocyclohexa-2,5-dien-1-ylidene)methyl]amino]urea]
IC50: > 94.1 µM

O=C1C([N+](=O)[O-])=CC(Cl)=CC1C=NNC(=S)Nc1ccc(S(=O)(=O)N2CCOCC2)cc1 (stereo not drawn) [1-[[(E)-(3-chloro-5-nitro-6-oxo-1-cyclohexa-2,4-dienylidene)methyl]amino]-3-[4-(4-morpholinylsulfonyl)phenyl]thiourea]
IC50: > 94.1 µM

Nc1nnc(CC(=O)N/N=C/C2C=C([N+](=O)[O-])C=CC2=O)s1 (stereo not drawn) [2-(5-amino-1,3,4-thiadiazol-2-yl)-N'-[(E)-(3-nitro-6-oxo-1-cyclohexa-2,4-dienylidene)methyl]acetohydrazide]
IC50: > 94.1 µM

O=C(CNC(=O)c1ccccc1Br)N/N=C/C1C=C([N+](=O)[O-])C=C(Br)C1=O (stereo not drawn) [2-bromanyl-N-[2-[2-[(E)-(5-bromanyl-3-nitro-6-oxidanylidene-cyclohexa-2,4-dien-1-ylidene)methyl]hydrazinyl]-2-oxidanylidene-ethyl]benzamide]
IC50: > 94.1 µM

O=C1C=CC([N+](=O)[O-])=CC1/C=N/n1c(COc2ccccc2)nc2ccccc2c1=O (stereo not drawn) [3-[[(E)-(3-nitro-6-oxocyclohexa-2,4-dien-1-ylidene)methyl]amino]-2-(phenoxymethyl)quinazolin-4-one]
IC50: > 94.1 µM

O=C1CC(=O)c2c(O)cc(O)c(O)c2C1=O [4,5,7,8-tetrahydroxy-1,2-naphthoquinone]
IC50: > 94.1 µM

Oc1c(Br)cc(CC=Nc2cc(O)c3cccnc3c2O)cc1Br [7-[2-(3,5-dibromo-4-hydroxyphenyl)ethylamino]quinoline-5,8-dione]
IC50: > 94.2 µM

Oc1ccc(CN=Nc2ncnc3c2ncn3Cc2ccccc2)cc1O [(4Z)-2-oxidanyl-4-[[2-[9-(phenylmethyl)purin-6-yl]hydrazinyl]methylidene]cyclohexa-2,5-dien-1-one]
IC50: > 94.1 µM

O=[N+]([O-])c1cc(Br)c(O)c(CN=Nc2nnnn2-c2cccc3ccccc23)c1 [(6E)-2-bromo-6-[[2-(1-naphthalen-1-yltetrazol-5-yl)hydrazinyl]methylidene]-4-nitrocyclohexa-2,4-dien-1-one]
IC50: > 94.1 µM

CCc1n[nH]c(=S)n1N=CC1C=C(OC)C=C([N+](=O)[O-])C1=O (stereo not drawn) [(6E)-6-[[(3-ethyl-5-sulfanylidene-1H-1,2,4-triazol-4-yl)amino]methylidene]-4-methoxy-2-nitro-1-cyclohexa-2,4-dienone]
IC50: > 94.1 µM

C=CCN1C(=O)/C(=N\NC(=O)CNC(=O)/C=C/c2ccco2)c2ccccc21 [(E)-N-[1-Allyl-2-oxo-1,2-dihydro-indol-(3Z)-ylidene-hydrazinocarbonylmethyl]-3-furan-2-yl-acrylamide]
IC50: > 94.1 µM

O=C(N/N=C/C1C=C([N+](=O)[O-])C=CC1=O)/C(=C\c1cccs1)NC(=O)c1ccccc1 (stereo not drawn) [MLS000332530]
IC50: > 94.1 µM

Cc1cc(C(=O)N/N=C/C2C=C(Br)C=C([N+](=O)[O-])C2=O)c2ccccc2n1 (stereo not drawn) [MLS000585468]
IC50: > 94.1 µM

Cc1cc(=O)oc2cc(OCC(=O)N/N=C/C3C=C([N+](=O)[O-])C=CC3=O)ccc12 (stereo not drawn) [MLS000588734]
IC50: > 94.1 µM

COC1=CC(=O)C(/C=N/NC(=O)c2ccncc2)C(OC)=C1[N+](=O)[O-] (stereo not drawn) [MLS000673335]
IC50: > 94.1 µM

Cc1cc2cc(CNC(=O)c3ccc(C)c([N+](=O)[O-])c3)ccc2[nH]1 [MLS000724615]
IC50: > 94.1 µM

O=C(CSc1nc2ccccc2s1)N/N=C/C1C=C([N+](=O)[O-])C=CC1=O (stereo not drawn) [MLS000777065]
IC50: > 94.1 µM

O=C1C=CC([N+](=O)[O-])=CC1C=NNC(=S)Nc1ccc(Cl)cc1Cl (stereo not drawn) [MLS000777079]
IC50: > 94.1 µM

CC1=CC([N+](=O)[O-])=CC(/C=N/n2c(C)nc3ccccc3c2=O)C1=O (stereo not drawn) [MLS000778735]
IC50: > 94 µM

CN1C(=O)C(C=NNC(=O)c2cc3ccccc3cc2O)c2ccccc21 (stereo not drawn) [MLS000912237]
IC50: > 94.1 µM

O=C(N/N=C/C1C=C(Cl)C=C([N+](=O)[O-])C1=O)c1cccc(S(=O)(=O)N2CCOCC2)c1 (stereo not drawn) [MLS002155639]
IC50: > 94.1 µM

O=C(N/N=C/C1C=C(Cl)C=C([N+](=O)[O-])C1=O)c1ccc2c(c1)OCO2 (stereo not drawn) [N'-[(E)-(3-chloranyl-5-nitro-6-oxidanylidene-cyclohexa-2,4-dien-1-ylidene)methyl]-1,3-benzodioxole-5-carbohydrazide]
IC50: > 94.1 µM

Cc1cc(C(=O)N/N=C/C2C=C(Cl)C=C([N+](=O)[O-])C2=O)c2ccccc2n1 (stereo not drawn) [N'-[(E)-(3-chloranyl-5-nitro-6-oxidanylidene-cyclohexa-2,4-dien-1-ylidene)methyl]-2-methyl-quinoline-4-carbohydrazide]
IC50: > 94.1 µM

CC1=CC([N+](=O)[O-])=CC(/C=N/NC(=O)C2COc3ccccc3O2)C1=O (stereo not drawn) [N'-[(E)-(5-methyl-3-nitro-6-oxocyclohexa-2,4-dien-1-ylidene)methyl]-2,3-dihydro-1,4-benzodioxine-3-carbohydrazide]
IC50: > 94.2 µM

Cc1ccccc1C(=O)Nc1cccc(C(=O)N/N=C/C2C=C(Cl)C=C([N+](=O)[O-])C2=O)c1 (stereo not drawn) [N-(3-{[(2E)-2-(5-chloro-2-hydroxy-3-nitrobenzylidene)hydrazino]carbonyl}phenyl)-2-methylbenzamide]
IC50: > 94.1 µM

Cc1ccc(C(=O)Nc2nc(C(C)(C)C)cs2)s1 [N-(4-tert-butyl-2-thiazolyl)-5-methyl-2-thiophenecarboxamide]
IC50: > 94.1 µM

O=C(NC(C(=O)NN=CC1C=C([N+](=O)[O-])C=CC1=O)c1n[nH]c(=O)c2ccccc12)c1ccccc1 (stereo not drawn) [N-[2-[2-[(E)-(3-nitro-6-oxidanylidene-cyclohexa-2,4-dien-1-ylidene)methyl]hydrazinyl]-2-oxidanylidene-1-(4-oxidanylidene-3H-phthalazin-1-yl)ethyl]benzamide]
IC50: > 94.1 µM

CC(NNC(=O)c1ccc(-c2ccccc2)cc1)=C1C(=O)c2ccccc2C1=O [N-[(E)-1-(1,3-dioxoinden-2-yl)ethylideneamino]-4-phenylbenzamide]
IC50: > 94.1 µM

O=C(N/N=C/C1C=C([N+](=O)[O-])C=C([N+](=O)[O-])C1=O)/C(=C\c1cccs1)NC(=O)c1ccccc1 (stereo not drawn) [SMR000207704]
IC50: > 94.1 µM

O=C1C([N+](=O)[O-])=CC=CC1/C=N/n1cnc2scc(-c3ccc(Cl)cc3)c2c1=O (stereo not drawn) [SMR000314525]
IC50: > 94.1 µM

Cc1cc(C(=O)NN=CC2C=C(Cl)C=C([N+](=O)[O-])C2=O)[nH]n1 (stereo not drawn) [SMR000414694]
IC50: > 94.1 µM

Cc1c(NC(=S)NN=CC2C=C([N+](=O)[O-])C=CC2=O)c(=O)n(-c2ccccc2)n1C (stereo not drawn) [SMR000415003]
IC50: > 94.1 µM

COc1ccc(C(=O)CC=NNC(=O)c2ccc(Cl)cc2)cc1 [SMR000499516]
IC50: > 94.1 µM

O=Nc1[nH]c(=O)c(CC(=O)c2ccccc2)nc1NO [SMR000539633]
IC50: > 94.2 µM

O=C(O)c1ccccc1NS(=O)(=O)c1ccc(N=NCc2ccc(O)c(O)c2)c([N+](=O)[O-])c1 [SMR001238114]
IC50: > 94.1 µM

CCOC(=O)c1c(C)[nH]c(C(=O)N/N=C/C2C=C([N+](=O)[O-])C=CC2=O)c1C (stereo not drawn) [ethyl 2,4-dimethyl-5-[[[(E)-(3-nitro-6-oxocyclohexa-2,4-dien-1-ylidene)methyl]amino]carbamoyl]-1H-pyrrole-3-carboxylate]
IC50: > 94.1 µM
